Source: patent US20100311751A1, “SOLID DISPERSIONS CONTAINING AN APOPTOSIS-PROMOTING AGENT” (ABBOTT LABORATORIES, priority 2009, published 2010)

Experiment: solubility in water
Assay type: physicochemical
Details: pH 2
Text: Examples of such active ingredients are, for example, Biopharmaceutics Classification System (BCS) Class IV drug substances that are characterized by low solubility and low permeability (see “Waiver of in vivo bioavailability and bioequivalence studies for immediate-release solid oral dosage forms based on a biopharmaceutics classification system”, U.S. Department of Health and Human Services, Food and Drug Administration, Center for Drug Evaluation and Research (CDER), August 2000). It will be recognized that aqueous solubility of many compounds is pH-dependent; in the case of such compounds the solubility of interest herein is at a physiologically relevant pH, for example a pH of about 1 to about 8.

For `CC1(C)CCC(c2ccc(Cl)cc2)=C(CN2CCN(c3ccc(C(=O)NS(=O)(=O)c4ccc(N[C@H](CCN5CCOCC5)CSc5ccccc5)c(S(=O)(=O)C(F)(F)F)c4)cc3)CC2)C1` [ABT-263], the solubility in water was “less than 4 μg/ml”.
